Measurements reported in publication PMC7845594, “Novel Immune Modulators Enhance Caenorhabditis elegans Resistance to Multiple Pathogens” (mSphere, 2021).

Experiments:
[1] = tested on: reactive oxygen species (ROS); assay: DHE staining (ROS level); type: in vivo, Caenorhabditis elegans; settings: 50 or 100 µM, 10 h, no pathogen
Description: Previous work from our lab has established that the ESRE network plays an important role in the resistance of C. elegans to pyoverdine, the main virulence determinant in liquid killing, and recent evidence has shown that ESRE activation depends on increased reactive oxygen species (ROS) ([23], [38], [39]). To evaluate ESRE activation, worms carrying an hsp-16.1p::GFP reporter (which contains two ESRE motifs and was previously used as an indicator of ESRE activation [[39][–][41]]), were exposed to 50 or 100 μM LK35, LK38, LK56, juglone (positive control), or DMSO. […] ROS level was assessed based on the fluorescence of dihydroethidium (DHE; a ROS-specific dye) using a COPAS FlowSort for flow vermimetry.
Young adult wild-type (A), hsp-4p::GFP (B), hsp-16.1p::GFP (C), or rpt-3::GFP (D) worms were incubated with LK molecules at 50 or 100 µM, DMSO control, or positive controls. For panel A, the worms were treated with compound for 10 h, and then the worms were stained with 4 µM DHE for 1 h before washing and fluorescence measurement. For panels B to D, the worms were treated with compound for 15 h prior to fluorescence measurement. Mean values from at least three biological replicates are shown. *, P < 0.05; **, P < 0.01; ***, P < 0.001 (compared to the solvent control). P values were calculated using Student’s t test. Error bars represent the standard error of the mean. […]

[2] = tested on: C. elegans exposed to P. aeruginosa strain PA14; assay: P. aeruginosa slow-killing assay (agar); type: in vivo, Caenorhabditis elegans; settings: wild-type worms, 50 µM, Fig 8 (DMSO 58.9)
Description: The finding that each of the compounds activated PMK-1/p38 MAPK targets was of interest, as this pathway is associated with enhanced immunity against multiple bacterial pathogens in agar-based C. elegans assays. Therefore, we tested whether these compounds could promote survival in an agar-based, high-colonization pathogenesis model known as slow killing. Loss of PMK-1 activity substantially compromises survival in the slow-killing assay ([16], [47]). Wild-type, young adult worms were exposed to P. aeruginosa strain PA14 on agar plates impregnated with each of the five compounds. […] To see whether this depended upon the PMK-1 pathway, LK32, LK38, and LK56 were retested in worms where RNAi was used to knock down pmk-1/MAPK or atf-7/ATF7 (a key transcription factor whose activity is modulated by PMK-1 [63, 64]) (Fig. 9; see Table S2 in the supplemental material for TD50 and overall statistical significance).
FIG 8 Four LK molecules extend C. elegans life span in the slow-killing assay. […] The data shown are from a representative replicate. Each of the three biological replicates was comprised of three plates per condition, with each plate containing ∼60 worms. Statistical significance was calculated using a log-rank test. Worms that left the surface of the plate were excluded from analysis (see Table S2 in the supplemental material for TD50 and exact P values).
FIG 9 Rescue in slow killing by a subset of LK compounds depends upon the PMK-1/p38 MAPK pathway. Wild-type L4 worms were reared on RNAi targeting pmk-1/p38 MAPK, atf-7/ATF-7, or empty vector and placed onto slow-killing plates containing DMSO or LK32 (A and B), LK38 (C and D), or LK56 (E and F) at 50 µM. Starting at 24 h, worms were scored every 12 h for survival until all worms perished. Each of the three biological replicates was comprised of three plates, each plate contained approximately 50 to 70 worms. Statistical significance was calculated using log-rank test (see Table S2 in the supplemental material for TD50 and exact P values). For vector RNAi, DMSO versus compound, P < 0.001 for LK38, LK56, and LK32.
Supplementary file : FIG S5 NSY-1 and SEK-1, upstream members of the PMK-1/p38 MAPK pathway, are required for LK38-mediated rescue. Young adult wild-type, nsy-1/MAP3K15(ag3), or sek-1/MAP2K6(km-4) mutants were exposed to P. aeruginosa in the slow-killing assay in the presence of DMSO or LK38. Data for each condition at each time point represent the average value for three plates from one representative replicate (of three replicates total). Each plate contained ∼60 worms. P values were calculated using a log-rank test (see Table S2 in the supplemental material for the TD50 and exact P values). For wild-type DMSO versus LK38 P < 0.001. No statistically significant difference was measured between LK38 and DMSO for either mutant. Download FIG S5, PDF file, 0.1 MB.
Slow-killing (SK) plates were made as previously reported ([92]). Compounds were added to molten SK agar before pouring plates. After solidifying, 40 µl of PA14 overnight culture was spread on plates before incubating plates at 37°C for 24 h, followed by 25°C for 24 h. 5-fluoro-2′-deoxyuridine (FUDR) (0.1 mg/ml) was dropped on plates 30 min prior to picking worms, to ensure nematode sterility. Fifty to seventy L4-stage, wild-type worms were picked onto plates and scored every 12 h after the first 24 h, until all worms were dead. Three biological replicates were performed.

[3] = tested on: C. elegans host defense pathway genes; assay: nanoString expression of 115 immune- and stress-responsive genes; settings: 100 μM LK molecules, 16 h
Protocol: The ratio of MIC to EC was determined for each of the 69 compounds.
Analysis of the expression of 115 immune- and stress-responsive genes using nanoString technology. Download Table S1, XLSX file, 0.02 MB.
For nanoString-based (nanoString Technologies, Seattle, WA) experiments, 2,000 wild-type, young adult worms were exposed to 100 μM LK molecules or DMSO control in S Basal medium in 6-well plates for 16 h. RNA purification and gene expression analysis were performed according to nanoString guidelines. Two biological replicates were tested for each condition.

Structure (SMILES): C=C(C)[C@H]1Cc2c(ccc3c2O[C@@H]2COc4cc(OC)c(OC)cc4[C@@H]2C3=O)O1 [rotenone]
- ROS level (DHE staining) [1]: significant increase in staining

Structure (SMILES): Cc1ccc(Nc2nc(N)c3ccccc3n2)cc1Cl [RPW-24, reference compound]
- TD50, slow killing [2]: 63.7 h

Structure (SMILES): Cc1cc(C2CCCCC2)n(O)c(=O)c1 [Ciclopirox, reference compound]
- B0024.4 expression, induction [3]: 1.09 fold
- C02B4.2 nhr-17 expression, induction [3]: 5.80 fold
- C06B3.7 expression, induction [3]: 3.19 fold
- C07G3.2 irg-1 expression, induction [3]: 1.06 fold
- C12C8.1 hsp-70 expression, induction [3]: 3.28 fold
- C15F1.7 sod-1 expression, induction [3]: 2.15 fold
- C29F7.2 expression, induction [3]: 10.38 fold
- C31A11.5 oac-6 expression, induction [3]: 5.76 fold
- C32D5.12 expression, induction [3]: 1.22 fold
- C32H11.1 expression, induction [3]: 20.23 fold
- C32H11.3 expression, induction [3]: 2.02 fold
- C34G6.4 pgp-2 expression, induction [3]: 3.63 fold
- C37C3.10 expression, induction [3]: 12.27 fold
- C37H5.8 hsp-6 expression, induction [3]: 4.01 fold
- C49G7.5 irg-2 expression, induction [3]: 3.65 fold
- F08F8.5 numr-1 expression, induction [3]: 8.74 fold
- F08H9.4 expression, induction [3]: 4.96 fold
- F14F9.3 expression, induction [3]: 1.98 fold
- F22B5.4 expression, induction [3]: 2.49 fold
- F22H10.2 expression, induction [3]: 2.82 fold
- F26A3.4 expression, induction [3]: 2.35 fold
- F35E8.11 cdr-1 expression, induction [3]: 56.32 fold
- F35G2.4 phy-2 expression, induction [3]: 1.70 fold
- F37B12.2 gcs-1 expression, induction [3]: 1.30 fold
- F43E2.8 hsp-4 expression, induction [3]: 10.74 fold
- F44E5.5 expression, induction [3]: 2.67 fold
- F49F1.6 expression, induction [3]: 2.55 fold
- F49F1.7 expression, induction [3]: 15.81 fold
- F49H6.13 expression, induction [3]: 2.90 fold
- F54B8.4 expression, induction [3]: 6.33 fold
- F55G11.2 expression, induction [3]: 1.86 fold
- F59A7.1 clec-206 expression, induction [3]: 11.44 fold
- F59B10.4 expression, induction [3]: 1.20 fold
- H12D21.1 nspa-1 expression, induction [3]: 3.83 fold
- H23N18.1 ugt-13 expression, induction [3]: 5.56 fold
- H23N18.3 ugt-8 expression, induction [3]: 108.33 fold
- K05B2.4 expression, induction [3]: 8.10 fold
- K08F4.7 gst-4 expression, induction [3]: 2.79 fold
- K09A9.1 nipi-3 expression, induction [3]: 2.12 fold
- K10D11.2 expression, induction [3]: 2.25 fold
- K10G4.3 expression, induction [3]: 2.60 fold
- R03D7.6 gst-5 expression, induction [3]: 11.91 fold
- R08H2.1 dhs-23 expression, induction [3]: 120.99 fold
- R10E8.3 expression, induction [3]: 3.34 fold
- T19D12.3 expression, induction [3]: 2.80 fold
- T19H12.1 ugt-9 expression, induction [3]: 6.34 fold
- T21E8.1 pgp-6 expression, induction [3]: 0.94 fold
- T22B7.3 expression, induction [3]: 2.18 fold
- T24C4.4 expression, induction [3]: 1.62 fold
- T24E12.5 expression, induction [3]: 3.07 fold
- T27E4.3 hsp-16.48 expression, induction [3]: 2.96 fold
- T27E4.8 hsp-16.1 expression, induction [3]: 2.80 fold
- T27F6.8 expression, induction [3]: 4.80 fold
- T28C12.4 expression, induction [3]: 13.23 fold
- W02D9.10 expression, induction [3]: 2.74 fold
- Y22D7AL.5 hsp-60 expression, induction [3]: 2.19 fold
- Y38E10A.15 nspe-7 expression, induction [3]: 1.84 fold
- Y46H3A.2 hsp-16.41 expression, induction [3]: 2.63 fold
- Y46H3A.3 hsp-16.2 expression, induction [3]: 2.71 fold
- Y56A3A.33 expression, induction [3]: 3.70 fold
- Y58A7A.5 expression, induction [3]: 1.48 fold
- ZC376.7 atfs-1 expression, induction [3]: 3.27 fold
- ZC443.6 ugt-16 expression, induction [3]: 52.72 fold
- ZK697.6 gst-21 expression, induction [3]: 454.34 fold
